The results in this text go back to US20260042755A1, “GPR6 INVERSE AGONISTS” (MapLight Therapeutics, Inc., priority 2022, published 2026).

Usually IC50 stands for the concentration at which inhibition is half-maximal. The low end stands for greater potency, the high end for weaker potency.

Molecules are shown by their SMILES.

For one assay, the target named is T1, GPR6 (Homo sapiens, UniProt P46095).
T1 construct: expressed in transfected cells; host or cells: CHO cells
The experiment in a line: GPR6 antagonist functional cAMP assay (LANCE Ultra cAMP TR-FRET, CHO cells stably expressing GPR6). Type of assay: cell-based. In short, it runs like this:
(§1)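 Read-out was TR-FRET cAMP signal at 665 nm after 1 h at room temperature, following 45 min compound exposure at 37 °C. Assay buffer contained 0.1% BSA and 150 μM Ro 20-1724. Antagonist IC50s were fitted with a 4-parameter logistic against DMSO and reference controls.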
Background: cAMP levels reflect the balance of adenylyl cyclase and phosphodiesterase activity.

A further assay addresses T2, GPR3 (Homo sapiens, UniProt P46089).
T2 construct: expressed in transfected cells; host or cells: CHO cells
The experiment in a line: GPR3 antagonist functional cAMP assay (LANCE Ultra cAMP TR-FRET, CHO cells stably expressing GPR3). Type of assay: cell-based. An outline of the steps: as §1

Where [1] appears, read: CHO cells stably expressing GPR6, cAMP assay (Example 24).
Setting [2] is: CHO cells stably expressing GPR3, cAMP assay (Example 24).
[3] abbreviates: procedure as described in Example 24.
Setting [4] is: CHO cells stably expressing GPR6, cAMP assay.
Where [5] appears, read: CHO cells stably expressing GPR3, cAMP assay.

T2 sequence (P46089 whole entry, species assumed): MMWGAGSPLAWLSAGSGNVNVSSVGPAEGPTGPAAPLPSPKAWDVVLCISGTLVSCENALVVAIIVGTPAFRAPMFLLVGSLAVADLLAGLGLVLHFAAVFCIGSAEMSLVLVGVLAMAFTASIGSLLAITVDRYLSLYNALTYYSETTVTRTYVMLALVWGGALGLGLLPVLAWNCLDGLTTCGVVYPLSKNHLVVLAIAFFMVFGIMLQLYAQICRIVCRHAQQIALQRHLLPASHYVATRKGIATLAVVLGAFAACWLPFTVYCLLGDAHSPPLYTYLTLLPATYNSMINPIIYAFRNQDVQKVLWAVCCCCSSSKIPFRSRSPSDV
T1 sequence (P46095 whole entry): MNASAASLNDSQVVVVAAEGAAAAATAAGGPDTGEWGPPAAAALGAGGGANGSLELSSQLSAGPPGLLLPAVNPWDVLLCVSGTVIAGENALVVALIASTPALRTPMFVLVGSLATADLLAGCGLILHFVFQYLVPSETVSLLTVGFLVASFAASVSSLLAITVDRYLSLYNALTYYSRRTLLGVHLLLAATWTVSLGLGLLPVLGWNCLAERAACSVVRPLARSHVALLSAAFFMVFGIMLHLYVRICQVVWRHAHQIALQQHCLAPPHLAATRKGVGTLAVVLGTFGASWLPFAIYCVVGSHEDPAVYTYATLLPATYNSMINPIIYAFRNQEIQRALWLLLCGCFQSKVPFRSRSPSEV

On to `Cn1cc(-c2nc3cc(C(C)(O)CO)ncc3nc2N2CCC(Oc3ccc(F)cc3F)CC2)cn1` (single isomer, unassigned) [Compound 692], for which the IC50 against GPR6 (procedure of Example 24) lay within 0.1 to 1 µM; against GPR3 (procedure of Example 24), 1 to 30 µM.

Turning to `CC(=O)N1CCc2nc(N3CCC(Oc4ccc(F)cc4F)CC3)c(C3CCCOC3)nc2C1` (stereo not shown) [Compound 237, 1-{2-[4-(2,4-difluorophenoxy)piperidin-1-yl]-3-(oxan-3-yl)-5H,6H,7H,8H-pyrido[3,4-b]pyrazin-6-yl}ethan-1-one], the IC50 against GPR6 (setting [1]) and against GPR3 (setting [2]) was 1 to 30 µM each time.

For the compound `CC(=O)N1CCc2nc(N3CCC(Oc4ccc(F)cc4F)CC3)c(-c3cnn(CCO)c3)nc2C1` [Compound 88, 1-{2-[4-(2,4-difluorophenoxy)piperidin-1-yl]-3-[1-(2-hydroxyethyl)-1H-pyrazol-4-yl]-5H,6H,7H,8H-pyrido[3,4-b]pyrazin-6-yl}ethan-1-one], the IC50 against GPR6 (setting [1]) and against GPR3 (setting [2]) was 1 to 30 µM in each case.

`Cn1cc(-c2nc3cnc(OCC(C)(C)O)cc3nc2N2CCC(Oc3ccc(F)cc3F)CC2)cn1` [Compound 696, 1-{2-[4-(2,4-difluorophenoxy)-1-piperidyl]-3-(1-methyl-4-pyrazolyl)-1,4,6-triaza-7-naphthyloxy}-2-methyl-2-propanol]: the IC50 against GPR6 (procedure of Example 24) is 0.1 to 1 µM; at GPR3 (procedure of Example 24), 1 to 30 µM.

Regarding `O=S1(=Nc2ccc(F)cc2F)CCN(c2nc3ccncc3nc2-c2cn[nH]c2)CC1` [Compound 58, 4-(3-(1H-pyrazol-4-yl)pyrido[3,4-b]pyrazin-2-yl)-1-((2,4-difluorophenyl)imino)-1l6-thiomorpholine 1-oxide], the IC50 on GPR6 (setting [1]) and against GPR3 (setting [2]) was 1 to 30 µM throughout.

`CC(=O)N1CCc2nc(N3CCC(Oc4ccc(F)cc4F)CC3)c(-c3cnn(CC(F)F)c3)nc2C1` [Compound 3, 1-{3-[1-(2,2-difluoroethyl)-1H-pyrazol-4-yl]-2-[4-(2,4-difluorophenoxy)piperidin-1-yl]-5H,6H,7H,8H-pyrido[3,4-b]pyrazin-6-yl}ethan-1-one]: the IC50 at GPR6 (setting [3]) was 0.1 to 1 µM; against GPR3 (setting [3]) it was 1 to 30 µM.

On to `Cn1cc(-c2nc3cnccc3nc2N2CCC(Cc3ccc(F)cc3F)CC2)cn1` [Compound 368, 4-[(2,4-difluorophenyl)methyl]-1-[3-(1-methyl-1H-pyrazol-4-yl)pyrido[3,4-b]pyrazin-2-yl]piperidine], for which the IC50 against GPR6 (procedure of Example 24) was under 0.1 µM; on GPR3 (procedure of Example 24) it was 0.1 to 1 µM.

Turning to `CC(C)(O)C(=O)c1cc2nc(N3CCC(Oc4ccc(F)cc4F)CC3)c(-c3cnn(CF)c3)nc2cn1` [Compound 621, 1-{2-[4-(2,4-difluorophenoxy)-1-piperidyl]-3-[1-(fluoromethyl)-4-pyrazolyl]-1,4,6-triaza-7-naphthyl}-2-hydroxy-2-methyl-1-propanone], the values for the IC50 against GPR6 (procedure of Example 24) and against GPR3 (procedure of Example 24) were 0.1 to 1 µM and 1 to 30 µM, respectively.

Take `CC(C)(O)C(O)c1cc2nc(-c3cnn(CF)c3)c(N3CCC(Oc4ccc(F)cc4F)CC3)nc2cn1` (single isomer, unassigned) [Compound 593]: the IC50 is under 0.1 µM on GPR6 (setting [4]) and 0.1 to 1 µM against GPR3 (setting [5]).

Consider `CC(=O)N1CCc2nc(N3CCN(Cc4cc(F)ccc4F)CC3)c(-c3cnn(C)c3)nc2C1` [Compound 505, 1-(2-{4-[(2,5-difluorophenyl)methyl]-1-piperazinyl}-3-(1-methyl-4-pyrazolyl)-5,6,7,8-tetrahydro-1,4,6-triaza-6-naphthyl)-1-ethanone], for which the IC50 fell in the range of 0.1 to 1 µM against GPR6 (setting [4]) and 1 to 30 µM on GPR3 (setting [5]).

On to `CC(C)(O)[C@@](C)(O)c1cc2nc(N3CCN(Cc4ccccc4F)CC3)c(-c3cnn(C(F)F)c3)nc2cn1` (single isomer, unassigned) [Compound 670], for which the IC50 at GPR6 (procedure of Example 24) and at GPR3 (procedure of Example 24) was 0.1 to 1 µM in each case.

As for `CCn1cc(-c2nc3c(nc2N2CCN(C(=O)c4ccc(Cl)cc4)CC2)CCN(C(C)=O)C3)cn1` [Compound 549, 1-{2-[4-(p-chlorobenzoyl)-1-piperazinyl]-3-(1-ethyl-4-pyrazolyl)-5,6,7,8-tetrahydro-1,4,6-triaza-6-naphthyl}-1-ethanone], the IC50 is 0.1 to 1 µM against GPR6 (setting [4]) and 1 to 30 µM at GPR3 (setting [5]).

Consider `CC(C)(O)C(O)c1cc2nc(-c3cnn(CF)c3)c(N3CCN(Cc4ccc(F)cc4F)CC3)nc2cn1` (single isomer, unassigned) [Compound 603], for which the IC50 against GPR6 (setting [4]) is under 0.1 µM; at GPR3 (setting [5]) it was 1 to 30 µM.

Turning to `CC(C)(O)C(C)(O)c1cc2nc(-c3cnn(C(F)F)c3)c(N3CCC(Oc4ccc(F)cc4F)CC3)nc2cn1` (stereo not shown) [Compound 674, 2-{2-[1-(difluoromethyl)-4-pyrazolyl]-3-[4-(2,4-difluorophenoxy)-1-piperidyl]-1,4,6-triaza-7-naphthyl}-3-methyl-2,3-butanediol], the IC50 against GPR6 (procedure of Example 24) is under 0.1 µM; against GPR3 (procedure of Example 24), 1 to 30 µM.

As for `CC(=O)N1CCc2nc(N3CCN(Cc4ccccc4)CC3)c(-c3cnn(C)c3)nc2C1` [Compound 280, 1-[2-(4-benzylpiperazin-1-yl)-3-(1-methyl-1H-pyrazol-4-yl)-5H,6H,7H,8H-pyrido[3,4-b]pyrazin-6-yl]ethan-1-one], the IC50 at GPR6 (procedure of Example 24) and at GPR3 (procedure of Example 24) was 1 to 30 µM each time.

On to `CC(=O)N1CCc2nc(N3CCC(Oc4ccc(F)cc4F)CC3)c(-c3cnn([C@H](C)C#N)c3)nc2C1` (single isomer, unassigned) [Compound 272], for which the IC50 on GPR6 (procedure of Example 24) lay within 0.1 to 1 µM; against GPR3 (procedure of Example 24), 1 to 30 µM.

For the compound `CCn1cc(-c2nc3cc(C(C)(O)C(C)(C)O)ncc3nc2N2CCC(Oc3ccc(F)cc3F)CC2)cn1` (single isomer, unassigned) [Compound 740], the IC50 fell in the range of 0.1 to 1 µM against GPR6 (procedure of Example 24) and 1 to 30 µM on GPR3 (procedure of Example 24).

Take `C[C@@H](O)[C@@H](O)c1cc2nc(N3CCC(Oc4ccc(F)cc4F)CC3)c(-c3cnn(C)c3)nc2cn1` (single isomer, unassigned) [Compound 472]: the IC50 is 0.1 to 1 µM against GPR6 (setting [1]) and 1 to 30 µM on GPR3 (setting [2]).

Take `COC[C@@H]1C[C@H]1c1nc2c(nc1N1CCC(Oc3ccc(F)cc3F)CC1)CCN(C(C)=O)C2` [Compound 547, 1-{3-[(1R,2R)-2-(methoxymethyl)cyclopropyl]-2-[4-(2,4-difluorophenoxy)-1-piperidyl]-5,6,7,8-tetrahydro-1,4,6-triaza-6-naphthyl}-1-ethanone]: the IC50 against GPR6 (setting [4]) and on GPR3 (setting [5]) was 1 to 30 µM throughout.

In the case of `Cn1cc(-c2nc3cnccc3nc2N2CCN(CC3CCCC(F)(F)C3)CC2)cn1` (stereo not shown) [Compound 214, 1-[(3,3-difluorocyclohexyl)methyl]-4-[3-(1-methyl-1H-pyrazol-4-yl)pyrido[3,4-b]pyrazin-2-yl]piperazine], the IC50 on GPR6 (setting [1]) and against GPR3 (setting [2]) was 1 to 30 µM each time.

As for `O=C(C1COC1)N1CCc2nc(N3CCC(Oc4ccc(F)cc4F)CC3)c(-c3cnn(C4CCCCO4)c3)nc2C1` (stereo not shown) [Compound 172, 4-(2,4-difluorophenoxy)-1-{3-[1-(oxan-2-yl)-1H-pyrazol-4-yl]-6-(oxetane-3-carbonyl)-5H,6H,7H,8H-pyrido[3,4-b]pyrazin-2-yl}piperidine], the IC50 against GPR6 (setting [1]) was in the range of 0.1 to 1 µM; against GPR3 (setting [2]), 1 to 30 µM.

As for `COC[C@H](O)c1cc2nc(-c3cnn(C)c3)c(N3CCC(Oc4ccc(F)cc4F)CC3)nc2cn1` (single isomer, unassigned) [Compound 681], the IC50 against GPR6 (procedure of Example 24) is under 0.1 µM; against GPR3 (procedure of Example 24), 0.1 to 1 µM.

With `CN(c1ccc(F)cc1F)C1CCN(c2nc3ccncc3nc2-c2cn[nH]c2)CC1` [Compound 55, 1-(3-(1H-pyrazol-4-yl)pyrido[3,4-b]pyrazin-2-yl)-N-(2,4-difluorophenyl)-N-methylpiperidin-4-amine], the IC50 against GPR6 (setting [3]) and against GPR3 (setting [3]) was 1 to 30 µM throughout.

For the compound `CC(=O)N1CCc2nc(N3CCN(Cc4ccc(F)cc4C)CC3)c(-c3cnn(C)c3)nc2C1` [Compound 347, 1-(2-{4-[(4-fluoro-2-methylphenyl)methyl]piperazin-1-yl}-3-(1-methyl-1H-pyrazol-4-yl)-5H,6H,7H,8H-pyrido[3,4-b]pyrazin-6-yl)ethan-1-one], the IC50 on GPR6 (procedure of Example 24) and against GPR3 (procedure of Example 24) was 1 to 30 µM each time.

Turning to `CCn1cc(-c2nc3c(nc2N2CCC(Oc4ccc(F)cc4F)CC2)CCN(C[C@@H](O)CO)C3)cn1` (single isomer, unassigned) [Compound 290], the IC50 against GPR6 (procedure of Example 24) lay within 0.1 to 1 µM; against GPR3 (procedure of Example 24), 1 to 30 µM.

As to `CC(O)c1cc2nc(N3CCC(Oc4ccc(F)cc4F)CC3)c(-c3cnn(C)c3)nc2cn1` (stereo not shown) [Compound 467, 1-{2-[4-(2,4-difluorophenoxy)piperidin-1-yl]-3-(1-methyl-1H-pyrazol-4-yl)pyrido[3,4-b]pyrazin-7-yl}ethan-1-ol], the 50% inhibitory concentration (IC50) on GPR6 (setting [1]) and against GPR3 (setting [2]) was 1 to 30 µM throughout.

Consider `CC(=O)N1CCc2nc(N3CCC(Oc4ccc(F)cc4F)CC3)c(-c3ccn[nH]3)nc2C1` [Compound 11, 1-{2-[4-(2,4-difluorophenoxy)piperidin-1-yl]-3-(1H-pyrazol-5-yl)-5H,6H,7H,8H-pyrido[3,4-b]pyrazin-6-yl}ethan-1-one], for which the IC50 at GPR6 (setting [3]) and against GPR3 (setting [3]) was 1 to 30 µM each time.

With `CC(=O)N1CCc2nc(N3CCN(C(CO)(CO)c4cc(F)ccc4F)CC3)c(-c3cnn(C)c3)nc2C1` [Compound 551, 1-(2-{4-[1-(2,5-difluorophenyl)-2-hydroxy-1-(hydroxymethyl)ethyl]-1-piperazinyl}-3-(1-methyl-4-pyrazolyl)-5,6,7,8-tetrahydro-1,4,6-triaza-6-naphthyl)-1-ethanone], the IC50 against GPR6 (setting [4]) is 0.1 to 1 µM; on GPR3 (setting [5]), at least 30 µM.

Take `Cn1cc(-c2nc3cnccc3nc2N2CCN(CC3CCOCC3)CC2)cn1` [Compound 242, 1-[3-(1-methyl-1H-pyrazol-4-yl)pyrido[3,4-b]pyrazin-2-yl]-4-[(oxan-4-yl)methyl]piperazine]: the results for the IC50 against GPR6 (setting [1]) and against GPR3 (setting [2]) were at least 30 µM and 1 to 30 µM, respectively.
